{
  "source": "patent US7491705B2",
  "about": "“Alpha-ketoamide derivative, and production method and use thereof” (Senju Pharmaceutical Co., Ltd., priority 2003, dated 2009)",
  "key": {"[1]": {"assay": "Solubility in 10 mM phosphate buffer (pH 7.0)", "assay_type": "physicochemical", "experimental": "Solubility of the compounds of the present invention in 10 mM phosphate buffer (pH 7.0) was measured."}, "[2]": {"assay": "Partition coefficient using IAM column", "assay_type": "physicochemical", "conditions": "IAM Fast Screening Mini-Column; Dulbecco's phosphate buffer (pH 7.4)", "experimental": "Analysis by HPLC system was carried out under the conditions given below, and retention time of each substance was measured. • Column: IAM Fast Screening Mini-Column (Regis Technologies, Inc.) • Mobile phase: Dulbecco's phosphate buffer (pH 7.4) • Detection wavelength: 250 nm • Column temperature: room temperature • Injection amount: 5.0 to 20 μL • Flow rate: 0.5 mL/min • Sample solution: 5 mg of sample was dissolved in 100 μL of acetonitrile, and a mobile phase was added to make 1 mL of a sample solution.\nThe measured value was inserted into the following formula, and the partition coefficient (K′ IAM) was calculated. k′IAM=(tR−t0)/t0 t0: retention time of the peak derived from acetonitrile tR: retention time of the peak of the sample"}, "[3]": {"assay": "Transportation rate into blood after oral administration", "assay_type": "in vivo, Macaca fascicularis (crab-eating monkey)", "conditions": "cynomolgus monkey, 10 mg/kg, Macaca fascicularis, plasma; for AUC(0-t): read-out: AUC 0→4 hr", "experimental": "The compound of the present invention was administered orally to Macaca fascicularis (crab-eating monkey) at a dose of 10 mg/kg. The blood was collected with the lapse of time, and the concentration of each compound in the plasma was measured."}, "[4]": {"system": "T1, μ-calpain", "T1 construct": "μ-calpain (derived from human red blood cells; available from Cosmo Bio Co. Ltd.); purchased Cosmo Bio Co. Ltd; host or cells: purified from human red blood cells", "assay_type": "biochemical", "conditions": "μ-calpain derived from human red blood cells; 30° C., 60 minutes; read-out: Enzyme inhibitory activity μ-calpain (IC50)", "experimental": "(1) Measurement of Inhibitory Activity Against μ-Calpain and m-Calpain\nThe inhibitory activity against μ-calpain and m-calpain was assayed according to the method described in Anal. Biochem. 1993, vol. 208, p. 387-392. That is, to 2.5 μL of a DMSO solution containing a varying concentration of the test sample in a 96-well plate was added 200 μL of a reaction solution containing 0.5 mg/mL casein, 50 mM Tris-HCl buffer (pH 7.4), 20 mM dithiothreitol and 1.0 nmol μ-calpain (derived from human red blood cells; available from Cosmo Bio Co. Ltd.) or m-calpain (derived from porcine kidney; available from Cosmo Bio Co. Ltd.). After 20 mM aqueous calcium chloride (50 μL) was added thereto, the mixture was incubated at 30° C. for 60 minutes. Then, 100 μL of the reaction solution was transferred to another 96-well plate, and purified water (50 μL) and 50% aqueous solution (100 μL) of Protein Assay Dye Reagent (available from Bio-Rad Laboratories, Inc.; catalogue No. 500-600) were added thereto. The reaction mixture was allowed to stand at room temperature for 15 minutes, and its absorbance was measured at 595 nm.\nThe absorbance of a reaction mixture prepared in the same manner as mentioned above, except that a DMSO solution contained no sample, was used as a control value, and that of a reaction mixture prepared in the same manner as mentioned above, except that 1 mM aqueous EDTA solution (50 μL) was used in place of 20 mM aqueous calcium chloride, was used as a blank value. […] Inhibition rate (%)={1−(measured value minus blank value)/(control value minus blank value)}×100"}, "[5]": {"assay": "in vitro", "conditions": "human, Caco-2", "procedure": "As a culture medium for the incubation, Dulbecco's modified Eagle's minimum essential medium (GIBCO BRL) supplemented with 10% fetal calf serum (GIBCO BRL), antibiotic-antimycotic mixture, liquid (GIBCO BRL), non-essential amino acid solution (GIBCO BRL) and 2 mmol/L L-glutamine (GIBCO BRL) was used. […] Propranolol was used as a positive control, and ^14C-mannitol was used as a negative control. LC-MS/MS was used for quantitative analysis of samples, and a liquid scintillation counter was used for quantitative analysis of ^14C-mannitol.\nPapp: apparent permeation coefficient (cm/sec)\nδQ/δt: permeation velocity (pmol/min)\nA: area of monolayer cell=0.33 cm^2\nC0: initial concentration at apical membrane side (pmol/mL)"}},
  "data": [
    {"smiles": "COCCOCCOCCOC(=O)N[C@@H](CC(C)C)C(=O)N[C@@H](Cc1ccccc1)C(=O)C(=O)NC1CC1", "note": "[Compound 18, ((1S)-1-((((1S)-1-Benzyl-2,3-dioxo-3-(cyclopropylamino)propyl)amino)carbonyl)-3-methylbutyl)carbamic acid 8-methoxy-3,6-dioxaoctyl ester]", "values": [
      {"measurement": "Solubility", "setting": "[1]", "value": 5400, "unit": "µg/mL"},
      {"measurement": "IAM (Log k′IAM)", "setting": "[2]", "value": 1.38},
      {"measurement": "Cmax", "setting": "[3]", "value": 660, "unit": "nM"},
      {"measurement": "AUC(0-t)", "setting": "[3]", "value": 1.6, "unit": "µM·h"}
    ]},
    {"smiles": "COCCOCCOCCOCCOC(=O)N[C@@H](CC(C)C)C(=O)N[C@@H](Cc1ccccc1)C(=O)C(=O)NC1CC1", "note": "[Compound 19, ((1S)-1-((((1S)-1-Benzyl-2,3-dioxo-3-(cyclopropylamino)propyl)amino)carbonyl)-3-methylbutyl)carbamic acid 11-methoxy-3,6,9-trioxaundecanyl ester]", "values": [
      {"measurement": "Solubility", "setting": "[1]", "value": 8300, "unit": "µg/mL"},
      {"measurement": "IAM (Log k′IAM)", "setting": "[2]", "value": 1.44},
      {"measurement": "Cmax", "setting": "[3]", "value": 900, "unit": "nM"},
      {"measurement": "AUC(0-t)", "setting": "[3]", "value": 1.6, "unit": "µM·h"}
    ]},
    {"smiles": "CCNC(=O)C(=O)[C@H](Cc1ccccc1)NC(=O)[C@H](CC(C)C)NC(=O)OC1CCOCC1", "note": "[Compound 3, ((1S)-1-((((1S)-1-Benzyl-2,3-dioxo-3-(ethylamino)propyl)amino)carbonyl)-3-methylbutyl)carbamic acid tetrahydro-4H-pyran-4-yl ester]", "values": [
      {"measurement": "IC50", "setting": "[4]", "value": 250, "unit": "nM"}
    ]},
    {"smiles": "CC(C)NCC(O)COc1cccc2ccccc12", "note": "(stereo not drawn) [Propranolol, reference compound]", "values": [
      {"measurement": "IAM (Log k′IAM)", "setting": "[2]", "value": 1.95},
      {"measurement": "Papp A→B at 10 μm", "setting": "[5]", "value": 8.5, "unit": "×10⁻⁶ cm/s"}
    ]},
    {"smiles": "CCNC(=O)C(=O)[C@H](CCc1ccccc1)NC(=O)[C@H](CC(C)C)NC(=O)O[C@H]1CCOC1", "note": "[Compound 14, ((1S)-1-((((1S)-2,3-Dioxo-3-ethylamino-1-(phenylethyl)propyl)amino)carbonyl)-3-methylbutyl)carbamic acid (3S)-tetrahydrofuran-3-yl ester]", "values": [
      {"measurement": "IC50", "setting": "[4]", "value": 160, "unit": "nM"}
    ]},
    {"smiles": "COCCOC(=O)N[C@@H](CC(C)C)C(=O)N[C@@H](CCc1ccccc1)C(=O)C(=O)NC1CC1", "note": "[Compound 15, ((1S)-1-((((1S)-2,3-Dioxo-3-cyclopropylamino-1-(phenylethyl)propyl)amino)carbonyl)-3-methylbutyl)carbamic acid 2-methoxyethyl ester]", "values": [
      {"measurement": "IC50", "setting": "[4]", "value": 180, "unit": "nM"}
    ]},
    {"smiles": "COCCOC(=O)N[C@@H](CC(C)C)C(=O)N[C@@H](Cc1ccccc1)C(=O)C(=O)NCC(F)(F)F", "note": "[Compound 10, ((1S)-1-((((1S)-1-Benzyl-2,3-dioxo-3-(2,2,2-trifluoroethylamino)propyl)amino)carbonyl)-3-methylbutyl)carbamic acid 2-methoxyethyl ester]", "values": [
      {"measurement": "IC50", "setting": "[4]", "value": 450, "unit": "nM"}
    ]},
    {"smiles": "CCCNC(=O)C(=O)[C@H](Cc1ccccc1)NC(=O)[C@H](CC(C)C)NC(=O)OCCOC", "note": "[Compound 7]", "values": [
      {"measurement": "IC50", "setting": "[4]", "value": 100, "unit": "nM"}
    ]},
    {"smiles": "CCNC(=O)C(=O)[C@H](Cc1ccccc1)NC(=O)[C@H](CC(C)C)NC(=O)O[C@H]1CCOC1", "note": "[Compound 2, ((1S)-1-((((1S)-1-Benzyl-2,3-dioxo-3-(ethylamino)propyl)amino)carbonyl)-3-methylbutyl)carbamic acid (3S)-tetrahydrofuran-3-yl ester]", "values": [
      {"measurement": "IC50", "setting": "[4]", "value": 150, "unit": "nM"}
    ]},
    {"smiles": "COCCOC(=O)N[C@@H](CC(C)C)C(=O)N[C@@H](Cc1ccccc1)C(=O)C(=O)NC1Cc2ccccc2C1", "note": "[Compound 11, ((1S)-1-((((1S)-1-Benzyl-2,3-dioxo-3-(2-indanylamino)propyl)amino)carbonyl)-3-methylbutyl)carbamic acid 2-methoxyethyl ester]", "values": [
      {"measurement": "IC50", "setting": "[4]", "value": 170, "unit": "nM"}
    ]},
    {"smiles": "COCCNC(=O)C(=O)[C@H](Cc1ccccc1)NC(=O)[C@H](CC(C)C)NC(=O)OCCOC", "note": "[Compound 12, ((1S)-1-((((1S)-1-Benzyl-2,3-dioxo-3-(2-methoxyethylamino)propyl)amino)carbonyl)-3-methylbutyl)carbamic acid 2-methoxyethyl ester]", "values": [
      {"measurement": "IC50", "setting": "[4]", "value": 180, "unit": "nM"}
    ]},
    {"smiles": "COCCOCCOC(=O)N[C@@H](CC(C)C)C(=O)N[C@@H](CC(C)C)C(=O)C(=O)NCCOc1ccccc1", "note": "[Compound 22, ((1S)-1-((((1S)-2,3-Dioxo-1-(2-methylpropyl)-3-(2-phenoxyethyl)aminopropyl)amino)carbonyl)-3-methylbutyl)carbamic acid 5-methoxy-3-oxapentyl ester]", "values": [
      {"measurement": "IC50", "setting": "[4]", "value": 90, "unit": "nM"}
    ]},
    {"smiles": "CC(C)C[C@H](NC(=O)OCCc1ccccn1)C(=O)N[C@@H](Cc1ccccc1)C(=O)C(=O)NC1CC1", "note": "[Compound 24, ((1S)-1-((((1S)-1-benzyl-3-(cyclopropylamino)-2,3-dioxo-propyl)amino)carbonyl)-3-methylbutyl)carbamic acid 2-(pyridin-2-yl)ethyl ester]", "values": [
      {"measurement": "IC50", "setting": "[4]", "value": 29, "unit": "nM"}
    ]},
    {"smiles": "COCCOC(=O)N[C@@H](CC(C)C)C(=O)N[C@@H](Cc1ccccc1)C(=O)C(=O)NC1CCC1", "note": "[Compound 8, ((1S)-1-((((1S)-1-Benzyl-2,3-dioxo-3-(cyclobutylamino)propyl)amino)carbonyl)-3-methylbutyl)carbamic acid 2-methoxyethyl ester]", "values": [
      {"measurement": "IC50", "setting": "[4]", "value": 170, "unit": "nM"}
    ]},
    {"smiles": "CCCCNC(=O)C(=O)[C@H](Cc1ccccc1)NC(=O)[C@H](CC(C)C)NC(=O)OCCOC", "note": "[Compound 9, ((1S)-1-((((1S)-1-Benzyl-3-butylamino-2,3-dioxo-propyl)amino)carbonyl)-3-methylbutyl)carbamic acid 2-methoxyethyl ester]", "values": [
      {"measurement": "IC50", "setting": "[4]", "value": 100, "unit": "nM"}
    ]},
    {"smiles": "CC(C)C[C@H](NC(=O)O[C@H]1CCOC1)C(=O)N[C@@H](CCc1ccccc1)C(=O)C(=O)NC1CC1", "note": "[Compound 16, ((1S)-1-((((1S)-2,3-Dioxo-3-cyclopropylamino-1-(phenylethyl)propyl)amino)carbonyl)-3-methylbutyl)carbamic acid (3S)-tetrahydro-furan-3-yl ester]", "values": [
      {"measurement": "IC50", "setting": "[4]", "value": 140, "unit": "nM"}
    ]},
    {"smiles": "COCCOC(=O)N[C@@H](CC(C)C)C(=O)N[C@@H](CC(C)C)C(=O)C(=O)NCCOc1ccccc1", "note": "[Compound 21, ((1S)-1-((((1S)-2,3-Dioxo-1-(2-methylpropyl)-3-(2-phenoxyethyl)aminopropyl)amino)carbonyl)-3-methylbutyl)carbamic acid 2-methoxyethyl ester]", "values": [
      {"measurement": "IC50", "setting": "[4]", "value": 80, "unit": "nM"}
    ]},
    {"smiles": "CC(C)C[C@H](NC(=O)OC1CCOCC1)C(=O)N[C@@H](Cc1ccccc1)C(=O)C(=O)NC1CC1", "note": "[Compound 6, ((1S)-1-((((1S)-1-Benzyl-3-cyclopropylamino-2,3-dioxo-propyl)amino)carbonyl)-3-methylbutyl)carbamic acid tetrahydro-4H-pyran-4-yl ester]", "values": [
      {"measurement": "IC50", "setting": "[4]", "value": 120, "unit": "nM"}
    ]},
    {"smiles": "CCNC(=O)C(=O)[C@H](CCc1ccccc1)NC(=O)[C@H](CC(C)C)NC(=O)OCCOC", "note": "[Compound 13, ((1S)-1-((((1S)-2,3-Dioxo-3-ethylamino-1-(phenylethyl)propyl)amino)carbonyl)-3-methylbutyl)carbamic acid 2-methoxyethyl ester]", "values": [
      {"measurement": "IC50", "setting": "[4]", "value": 300, "unit": "nM"}
    ]},
    {"smiles": "CC(C)C[C@H](NC(=O)O[C@H]1CCOC1)C(=O)N[C@@H](Cc1ccccc1)C(=O)C(=O)NC1CC1", "note": "[Compound 5, ((1S)-1-((((1S)-1-Benzyl-3-(cyclopropylamino)-2,3-dioxo-propyl)amino)carbonyl)-3-methylbutyl)carbamic acid (3S)-tetrahydrofuran-3-yl ester]", "values": [
      {"measurement": "IC50", "setting": "[4]", "value": 90, "unit": "nM"}
    ]},
    {"smiles": "COCCOCCOCCOCCOCCOC(=O)N[C@@H](CC(C)C)C(=O)N[C@@H](Cc1ccccc1)C(=O)C(=O)NC1CC1", "note": "[Compound 20, ((1S)-1-((((1S)-1-Benzyl-2,3-dioxo-3-(cyclopropylamino)propyl)amino)carbonyl)-3-methylbutyl)carbamic acid 14-methoxy-3,6,9,12-tetraoxa-tetradecanyl ester]", "values": [
      {"measurement": "Solubility", "setting": "[1]", "value": 16300, "unit": "µg/mL"}
    ]},
    {"smiles": "CCNC(=O)C(=O)[C@H](Cc1ccccc1)NC(=O)[C@H](CC(C)C)NC(=O)OCCOC", "note": "[Compound 1, ((1S)-1-((((1S)-1-Benzyl-2,3-dioxo-3-(ethylamino)propyl)amino)carbonyl)-3-methylbutyl)carbamic acid 2-methoxyethyl ester]", "values": [
      {"measurement": "IC50", "setting": "[4]", "value": 170, "unit": "nM"}
    ]},
    {"smiles": "COCCOCCOC(=O)N[C@@H](CC(C)C)C(=O)NC(Cc1ccccc1)C(=O)C(N)=O", "note": "(mixture of isomers) [Compound 23, ((1S)-1-((((1RS)-3-amino-1-benzyl-2,3-dioxopropyl)amino)carbonyl)-3-methylbutyl)carbamic acid 5-methoxy-3-oxapentyl ester]", "values": [
      {"measurement": "IC50", "setting": "[4]", "value": 190, "unit": "nM"}
    ]}
  ]
}
